Assay results: ChEMBL document CHEMBL1201862, “PubChem BioAssay data set” (2004)
Activity calls are given as the source filed them.

Experiments:
[1] = Fluorescence-based cell-based high throughput dose response assay for inhibitors of the interaction of nucleotide-binding oligomerization domain containing 2 (NOD2) and the receptor-interacting serine-threonine kinase 2 (RIPK2).; type: functional; conditions: Homo sapiens
[2] = inhibitors of PGC1a acetylation in cells, dose response, cell-based, cherry-picked samples (AID 720514); type: functional;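 note: potency may reflect raised or lowered acetylation signal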
[3] = molecular target: T1, Microphthalmia-associated transcription factor (Homo sapiens, UniProt O75030); test: TRPM1 promoter luciferase signal decrease, dose response, MITF inhibitor project, cell-based, SK-MEL-5, cherry-picked, set 3 (AID 493073); type: functional
T1 sequence (O75030 whole entry): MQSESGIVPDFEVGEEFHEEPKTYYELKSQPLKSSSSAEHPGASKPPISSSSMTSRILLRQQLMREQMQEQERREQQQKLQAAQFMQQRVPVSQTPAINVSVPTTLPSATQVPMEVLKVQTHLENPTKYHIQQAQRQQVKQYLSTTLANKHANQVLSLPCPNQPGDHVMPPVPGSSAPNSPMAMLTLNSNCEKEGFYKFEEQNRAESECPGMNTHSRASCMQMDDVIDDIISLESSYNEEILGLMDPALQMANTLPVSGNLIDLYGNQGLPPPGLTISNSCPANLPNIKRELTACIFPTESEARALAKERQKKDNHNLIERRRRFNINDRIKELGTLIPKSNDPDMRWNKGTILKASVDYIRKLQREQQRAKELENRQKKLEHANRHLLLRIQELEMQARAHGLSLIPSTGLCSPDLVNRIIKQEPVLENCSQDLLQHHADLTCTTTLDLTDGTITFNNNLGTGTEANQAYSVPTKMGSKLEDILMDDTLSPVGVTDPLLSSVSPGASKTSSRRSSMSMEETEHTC

Paired box protein Pax-8 = Paired box protein Pax-8 (Homo sapiens, UniProt Q06710); test: inhibitors of PAX8-driven TPO luciferase reporter, dose response, RMG-I cells, cherry-pick (AID 687027); type: functional, cell-based;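 note: luciferase reporter driven by Pax8 target thyroperoxidase promoter measured by SteadyGlo luminescence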
Paired box protein Pax-8, sequence (Q06710 whole entry): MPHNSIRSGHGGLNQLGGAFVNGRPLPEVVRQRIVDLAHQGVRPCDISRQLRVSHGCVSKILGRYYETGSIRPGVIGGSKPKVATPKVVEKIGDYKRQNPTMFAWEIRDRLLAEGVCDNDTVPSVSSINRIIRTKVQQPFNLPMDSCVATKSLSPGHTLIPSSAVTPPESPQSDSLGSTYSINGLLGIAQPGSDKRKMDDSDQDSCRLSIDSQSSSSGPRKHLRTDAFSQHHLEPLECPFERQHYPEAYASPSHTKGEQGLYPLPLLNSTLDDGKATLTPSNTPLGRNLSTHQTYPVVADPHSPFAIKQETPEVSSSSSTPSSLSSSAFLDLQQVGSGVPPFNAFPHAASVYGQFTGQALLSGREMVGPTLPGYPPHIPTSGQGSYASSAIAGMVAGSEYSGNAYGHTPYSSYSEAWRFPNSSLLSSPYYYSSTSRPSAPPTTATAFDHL

[4] = molecular target: NAD-dependent protein deacylase sirtuin-5, mitochondrial (Homo sapiens, UniProt Q9NXA8); test: SIRT5 desuccinylase inhibitors, dose response, biochemical, fluorescence imaging, cherry-pick, set 5 (AID 720591);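 note: desuccinylation of succinyl peptide AMC substrate read as fluorescence after trypsin release; potency of inhibitors that lower fluorescence and may act on trypsin instead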
NAD-dependent protein deacylase sirtuin-5, mitochondrial, sequence (Q9NXA8 whole entry): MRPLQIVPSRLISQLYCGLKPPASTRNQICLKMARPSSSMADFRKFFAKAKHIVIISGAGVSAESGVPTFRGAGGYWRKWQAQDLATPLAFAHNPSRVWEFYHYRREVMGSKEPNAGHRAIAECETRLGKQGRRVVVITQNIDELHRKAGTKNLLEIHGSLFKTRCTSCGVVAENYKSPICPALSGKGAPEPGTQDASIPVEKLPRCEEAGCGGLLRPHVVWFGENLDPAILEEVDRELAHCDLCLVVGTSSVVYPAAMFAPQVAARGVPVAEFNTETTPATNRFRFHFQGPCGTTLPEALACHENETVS

[5] = molecular target: COUP transcription factor 2 (Homo sapiens, UniProt P24468); test: Luminescence-based cell-based high throughput dose response assay to identify inhibitors of COUP-TFII (NR2F2).; type: functional;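 note: HEK293 cells transiently cotransfected with COUP-TFII expression vector and reporter; luciferase reporter luminescence driven by COUP-TFII from the pX2-168 reporter plasmid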
COUP transcription factor 2, sequence (P24468 whole entry): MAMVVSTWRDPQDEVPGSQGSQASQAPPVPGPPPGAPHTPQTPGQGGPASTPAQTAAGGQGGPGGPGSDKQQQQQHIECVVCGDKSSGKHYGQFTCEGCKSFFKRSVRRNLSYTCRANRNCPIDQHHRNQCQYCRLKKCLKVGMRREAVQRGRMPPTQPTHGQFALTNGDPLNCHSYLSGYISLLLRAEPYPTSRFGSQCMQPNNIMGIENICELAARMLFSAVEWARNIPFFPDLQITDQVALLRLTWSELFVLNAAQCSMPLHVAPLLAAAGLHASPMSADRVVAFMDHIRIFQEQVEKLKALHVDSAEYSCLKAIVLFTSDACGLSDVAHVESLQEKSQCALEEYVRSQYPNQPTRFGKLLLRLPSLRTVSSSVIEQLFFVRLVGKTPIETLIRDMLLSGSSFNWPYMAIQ

[6] = A549 cell cytotoxicity, dose response, cytotoxicity control, plate reader, cherry-pick, antagonist series (AID 743412); type: functional, cell-based
[7] = HEK293 cell cytotoxicity, dose response, cytotoxicity control, plate reader, cherry-picked samples (AID 743446); type: functional, cell-based
[8] = LGR2 antagonists, dose response, cell-based, HEK293, CRE-luciferase reporter, cherry pick, set 2 (AID 743343); type: functional;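 note: transfected cells were stimulated with diluted bursicon conditioned medium after compound addition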
[9] = MC4R antagonists, dose response, counter-screen for LGR2 antagonist project, cell-based, plate reader, cherry pick (AID 743444); type: functional;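 note: transfected HEK 293 cells stimulated with alpha-MSH peptide; potency of inhibitors of the alpha-MSH evoked signal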
[10] = HepG2 cell cytotoxicity, dose response, cytotoxicity control, plate reader, cherry-pick, antagonist series (AID 743416); type: functional, cell-based
[11] = RKO cell viability reduction, dose response, CellTiter-Glo luminescence (AID 1117322); type: functional
[12] = cytotoxicity toward HT-29 cells – cell-based, CellTiter-Glo luminescence, IC50, dose response (AID 1117330); type: functional
[13] = Concentration-dependent survival of SW480 colon cancer line, luminescence detection with CellTiter-Glo, half-maximal inhibitory concentration (AID 1117338); type: functional
[14] = CellTiter-Glo luminescent dose response of DLD-1 viability loss (AID 1117352); type: functional
[15] = SNU-C1 cell viability reduction, dose response, CellTiter-Glo luminescence (AID 1117323); type: functional, cell-based
[16] = cytotoxicity toward Colo320 cells – cell-based, CellTiter-Glo luminescence, IC50, dose response (AID 1117334); type: functional; conditions: COLO 320
[17] = cytotoxicity toward HCT116 cells – cell-based, CellTiter-Glo luminescence, IC50, dose response (AID 1117332); type: functional; conditions: HCT-116

## Cc1ccc(NC(=O)Cn2ncc(Cl)c(Cl)c2=O)cc1S(=O)(=O)N1CCCCC1
[1]
  IC50: 2.88 µM (active)
[2]
  AC50: 7.27 µM (active)
[3]
  AC50: 13.7 µM (active)
Paired box protein Pax-8
  AC50: 4.58 µM (active)

## COc1cc(Nc2ncc3c(n2)CCN(C(=O)Nc2ccc(C(C)C)cc2)C3)cc(OC)c1OC
[4]
  AC50: 17 µM (active)

## COc1ccc(-n2nnnc2C(c2cc3ccccc3o2)N2CCC(n3c(O)nc4ccccc43)CC2)cc1 (stereo not drawn)
[5]
  IC50: 6.4 µM (active)
[6]
  AC50: 38.9 µM (active)
[7]
  AC50: 8.29 µM (active)
[8]
  AC50: 13.7 µM (active)
[9]
  AC50: 14.3 µM (active)
[10]
  AC50: 4.45 µM (active)

## CC=CC1=C(C(=O)O)N2C(=O)[C@@H](NC(=O)[C@H](N)c3ccc(O)cc3)[C@H]2SC1
[11]
  IC50: > 20 µM (inactive)
[12]
  IC50: > 20 µM (inactive)
[13]
  IC50: > 20 µM (inactive)
[14]
  IC50: > 20 µM (inactive)
[15]
  IC50: > 20 µM (inactive)
[16]
  IC50: > 20 µM (inactive)
[17]
  IC50: > 20 µM (inactive)
